Experimental data: the kinase profiling compilation of Christmann-Franck et al. (2016)

Experiments:
Experiment in all cases: radiometric filter-binding kinase assay, Kinase HotSpot
Settings in all cases: compound 0.5 µM; ATP 10 µM
CDK6 CCND1 (human) = CDK6 CCND1 (human) (UniProt Q00534+P24385)
EPHA4 (human) = EPHA4 (human) (UniProt P54764)
GSG2 (human) = GSG2 (human) (UniProt Q8TF76)
NLK (human) = NLK (human) (UniProt Q9UBE8)
PKN2 (human) = PKN2 (human) (UniProt Q16513)
AURKB (human) = AURKB (human) (UniProt Q96GD4)
MYLK (human) = MYLK (human) (UniProt Q15746)
ZAP70 (human) = ZAP70 (human) (UniProt P43403)
PIM1 (human) = PIM1 (human) (UniProt P11309)
PAK4 (human) = PAK4 (human) (UniProt O96013)
EGFR (human) = EGFR (human) (UniProt P00533)
CDK6 CCND3 (human) = CDK6 CCND3 (human) (UniProt P30281+Q00534)
ALK (human) = ALK (human) (UniProt Q9UM73)
TXK (human) = TXK (human) (UniProt P42681)
PHKG2 (human) = PHKG2 (human) (UniProt P15735)
CDC42BPA (human) = CDC42BPA (human) (UniProt Q5VT25)
DYRK2 (human) = DYRK2 (human) (UniProt Q92630)
HIPK4 (human) = HIPK4 (human) (UniProt Q8NE63)
BTK (human) = BTK (human) (UniProt Q06187)
MKNK2 (human) = MKNK2 (human) (UniProt Q9HBH9)
GRK7 (human) = GRK7 (human) (UniProt Q8WTQ7)
TAOK3 (human) = TAOK3 (human) (UniProt Q9H2K8)
DMPK (human) = DMPK (human) (UniProt Q09013)
STK3 (human) = STK3 (human) (UniProt Q13188)
RPS6KA3 KD1 KD2 (human) = RPS6KA3 KD1 KD2 (human) (UniProt P51812)
MELK (human) = MELK (human) (UniProt Q14680)
KIT (human) = KIT (human) (UniProt P10721)
BRAF (human) = BRAF (human) (UniProt P15056)
CLK2 (human) = CLK2 (human) (UniProt P49760)
STK17A (human) = STK17A (human) (UniProt Q9UEE5)
CAMK2A (human) = CAMK2A (human) (UniProt Q9UQM7)
VRK1 (human) = VRK1 (human) (UniProt Q99986)
ULK1 (human) = ULK1 (human) (UniProt O75385)
NUAK2 (human) = NUAK2 (human) (UniProt Q9H093)
PAK6 (human) = PAK6 (human) (UniProt Q9NQU5)
CHEK2 (human) = CHEK2 (human) (UniProt O96017)
MATK (human) = MATK (human) (UniProt P42679)
MAPK14 (human) = MAPK14 (human) (UniProt Q16539)
AXL (human) = AXL (human) (UniProt P30530)
SRPK2 (human) = SRPK2 (human) (UniProt P78362)
RPS6KB2 (human) = RPS6KB2 (human) (UniProt Q9UBS0)

Chain of RPS6KA3 KD1 KD2 (human) (P51812 whole entry, looked up): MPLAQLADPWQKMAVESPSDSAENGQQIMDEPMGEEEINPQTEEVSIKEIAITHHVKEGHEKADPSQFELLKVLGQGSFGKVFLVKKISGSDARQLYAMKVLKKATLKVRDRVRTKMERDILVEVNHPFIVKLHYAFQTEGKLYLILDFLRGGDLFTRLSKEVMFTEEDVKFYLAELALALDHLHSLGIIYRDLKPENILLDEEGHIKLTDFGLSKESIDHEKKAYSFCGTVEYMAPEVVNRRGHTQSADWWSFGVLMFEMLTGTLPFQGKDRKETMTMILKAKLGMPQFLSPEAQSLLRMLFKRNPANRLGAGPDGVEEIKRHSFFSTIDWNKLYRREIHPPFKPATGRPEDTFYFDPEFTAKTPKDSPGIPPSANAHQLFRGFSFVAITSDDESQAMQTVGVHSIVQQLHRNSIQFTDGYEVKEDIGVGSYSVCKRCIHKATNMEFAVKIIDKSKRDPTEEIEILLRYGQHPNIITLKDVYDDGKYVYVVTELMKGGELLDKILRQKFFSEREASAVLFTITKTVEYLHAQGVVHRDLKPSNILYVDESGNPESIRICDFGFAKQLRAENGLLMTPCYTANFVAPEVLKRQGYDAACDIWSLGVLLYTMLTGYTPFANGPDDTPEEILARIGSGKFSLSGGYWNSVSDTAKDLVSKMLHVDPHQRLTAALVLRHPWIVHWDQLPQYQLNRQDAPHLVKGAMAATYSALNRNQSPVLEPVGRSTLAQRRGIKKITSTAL
Chain of GSG2 (human) (Q8TF76 whole entry, looked up): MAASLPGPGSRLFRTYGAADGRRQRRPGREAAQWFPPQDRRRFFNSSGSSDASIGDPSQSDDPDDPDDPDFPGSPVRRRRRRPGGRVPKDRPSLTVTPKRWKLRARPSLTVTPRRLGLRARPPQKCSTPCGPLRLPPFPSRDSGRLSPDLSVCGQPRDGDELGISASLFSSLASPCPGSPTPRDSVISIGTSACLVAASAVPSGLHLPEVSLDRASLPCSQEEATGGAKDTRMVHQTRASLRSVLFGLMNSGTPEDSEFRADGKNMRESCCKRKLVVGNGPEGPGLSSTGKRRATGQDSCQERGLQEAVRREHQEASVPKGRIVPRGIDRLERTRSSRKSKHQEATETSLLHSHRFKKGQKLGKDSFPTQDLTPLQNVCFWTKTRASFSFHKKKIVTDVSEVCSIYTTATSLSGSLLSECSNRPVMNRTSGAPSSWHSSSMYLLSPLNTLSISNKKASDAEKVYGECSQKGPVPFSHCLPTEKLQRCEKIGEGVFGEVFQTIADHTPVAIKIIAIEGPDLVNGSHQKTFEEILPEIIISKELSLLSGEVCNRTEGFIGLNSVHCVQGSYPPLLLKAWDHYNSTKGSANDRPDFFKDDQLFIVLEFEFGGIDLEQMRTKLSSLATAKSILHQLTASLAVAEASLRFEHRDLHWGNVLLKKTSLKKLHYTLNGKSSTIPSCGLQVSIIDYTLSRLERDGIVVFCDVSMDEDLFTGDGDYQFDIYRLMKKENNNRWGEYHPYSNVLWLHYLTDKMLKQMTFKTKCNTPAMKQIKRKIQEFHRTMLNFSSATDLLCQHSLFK
Chain of STK17A (human) (Q9UEE5 whole entry, looked up): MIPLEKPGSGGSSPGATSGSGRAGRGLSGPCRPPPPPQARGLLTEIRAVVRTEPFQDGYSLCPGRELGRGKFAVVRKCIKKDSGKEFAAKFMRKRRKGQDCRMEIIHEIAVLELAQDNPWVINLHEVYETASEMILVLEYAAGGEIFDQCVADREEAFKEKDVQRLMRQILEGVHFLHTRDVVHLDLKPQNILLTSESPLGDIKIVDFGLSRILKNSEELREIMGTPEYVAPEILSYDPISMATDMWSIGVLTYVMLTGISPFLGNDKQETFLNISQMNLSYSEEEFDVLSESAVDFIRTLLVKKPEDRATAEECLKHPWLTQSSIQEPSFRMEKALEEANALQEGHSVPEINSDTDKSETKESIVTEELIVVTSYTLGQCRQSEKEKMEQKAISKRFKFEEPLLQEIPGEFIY
Chain of BRAF (human) (P15056 whole entry, looked up): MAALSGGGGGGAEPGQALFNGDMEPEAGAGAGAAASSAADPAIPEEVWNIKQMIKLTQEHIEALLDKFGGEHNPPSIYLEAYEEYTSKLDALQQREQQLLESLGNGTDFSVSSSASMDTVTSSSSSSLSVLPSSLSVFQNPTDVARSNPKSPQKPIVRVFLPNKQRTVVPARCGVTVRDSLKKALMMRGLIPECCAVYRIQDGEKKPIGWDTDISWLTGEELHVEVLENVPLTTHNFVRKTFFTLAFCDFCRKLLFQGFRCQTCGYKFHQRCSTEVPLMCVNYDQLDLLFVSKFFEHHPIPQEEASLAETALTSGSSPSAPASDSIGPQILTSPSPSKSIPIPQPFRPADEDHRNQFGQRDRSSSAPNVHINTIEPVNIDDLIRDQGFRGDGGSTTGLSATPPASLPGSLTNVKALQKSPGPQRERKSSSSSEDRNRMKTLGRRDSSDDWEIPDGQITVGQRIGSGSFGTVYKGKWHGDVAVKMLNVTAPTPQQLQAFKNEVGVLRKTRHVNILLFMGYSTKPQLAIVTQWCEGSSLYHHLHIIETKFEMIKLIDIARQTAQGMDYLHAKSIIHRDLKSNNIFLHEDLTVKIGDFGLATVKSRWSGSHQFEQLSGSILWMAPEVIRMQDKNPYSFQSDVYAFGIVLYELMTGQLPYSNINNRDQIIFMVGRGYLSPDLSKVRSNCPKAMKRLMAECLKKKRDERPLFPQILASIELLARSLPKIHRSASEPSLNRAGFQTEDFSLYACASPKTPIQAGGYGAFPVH
Chain of DMPK (human) (Q09013 whole entry, looked up): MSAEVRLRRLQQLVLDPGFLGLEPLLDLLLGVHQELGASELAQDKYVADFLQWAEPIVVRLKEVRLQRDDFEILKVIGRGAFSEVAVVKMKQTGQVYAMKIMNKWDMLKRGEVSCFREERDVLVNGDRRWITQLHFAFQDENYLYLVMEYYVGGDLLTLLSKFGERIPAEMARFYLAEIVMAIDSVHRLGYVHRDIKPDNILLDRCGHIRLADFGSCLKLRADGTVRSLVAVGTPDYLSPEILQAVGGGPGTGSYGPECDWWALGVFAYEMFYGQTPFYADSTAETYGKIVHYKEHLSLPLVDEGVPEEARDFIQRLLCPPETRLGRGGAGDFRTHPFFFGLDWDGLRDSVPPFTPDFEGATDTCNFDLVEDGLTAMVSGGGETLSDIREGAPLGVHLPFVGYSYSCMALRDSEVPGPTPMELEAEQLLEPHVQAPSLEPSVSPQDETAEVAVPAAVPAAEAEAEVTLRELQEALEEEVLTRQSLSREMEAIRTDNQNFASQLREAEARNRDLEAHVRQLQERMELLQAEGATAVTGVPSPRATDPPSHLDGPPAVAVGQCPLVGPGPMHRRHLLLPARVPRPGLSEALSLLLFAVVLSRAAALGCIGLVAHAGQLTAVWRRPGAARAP
Chain of CAMK2A (human) (Q9UQM7 whole entry, looked up): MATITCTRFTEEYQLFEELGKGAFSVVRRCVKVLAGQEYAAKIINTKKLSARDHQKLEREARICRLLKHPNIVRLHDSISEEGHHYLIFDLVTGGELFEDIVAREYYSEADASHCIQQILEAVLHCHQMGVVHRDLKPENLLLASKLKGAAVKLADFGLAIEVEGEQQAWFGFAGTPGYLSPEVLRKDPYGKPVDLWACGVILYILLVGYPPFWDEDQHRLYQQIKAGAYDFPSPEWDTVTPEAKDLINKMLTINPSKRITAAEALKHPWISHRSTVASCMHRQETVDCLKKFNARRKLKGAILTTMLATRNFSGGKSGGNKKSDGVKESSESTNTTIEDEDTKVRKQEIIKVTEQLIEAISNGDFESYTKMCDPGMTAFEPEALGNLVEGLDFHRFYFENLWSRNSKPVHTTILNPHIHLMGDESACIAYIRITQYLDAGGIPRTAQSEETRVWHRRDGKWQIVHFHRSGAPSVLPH
Chain of PIM1 (human) (P11309 whole entry, looked up): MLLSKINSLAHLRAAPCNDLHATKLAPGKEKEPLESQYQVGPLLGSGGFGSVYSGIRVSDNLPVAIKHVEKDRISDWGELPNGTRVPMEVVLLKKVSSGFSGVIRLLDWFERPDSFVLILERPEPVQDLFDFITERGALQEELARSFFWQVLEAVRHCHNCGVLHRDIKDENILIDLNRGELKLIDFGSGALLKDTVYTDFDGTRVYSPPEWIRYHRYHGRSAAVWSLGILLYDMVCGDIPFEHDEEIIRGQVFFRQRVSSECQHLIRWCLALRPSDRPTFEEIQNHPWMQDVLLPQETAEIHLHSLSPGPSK
Chain of CDK6 CCND3 (human) (P30281 whole entry, looked up): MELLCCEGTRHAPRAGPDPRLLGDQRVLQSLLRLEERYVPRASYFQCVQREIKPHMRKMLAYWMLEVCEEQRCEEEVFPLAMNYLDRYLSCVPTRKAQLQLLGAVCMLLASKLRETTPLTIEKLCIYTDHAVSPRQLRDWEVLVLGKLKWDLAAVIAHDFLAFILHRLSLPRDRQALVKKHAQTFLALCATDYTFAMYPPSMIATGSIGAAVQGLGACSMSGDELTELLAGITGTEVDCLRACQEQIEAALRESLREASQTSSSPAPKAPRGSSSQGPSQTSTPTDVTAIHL
Chain of CDK6 CCND3 (human) (Q00534 whole entry, looked up): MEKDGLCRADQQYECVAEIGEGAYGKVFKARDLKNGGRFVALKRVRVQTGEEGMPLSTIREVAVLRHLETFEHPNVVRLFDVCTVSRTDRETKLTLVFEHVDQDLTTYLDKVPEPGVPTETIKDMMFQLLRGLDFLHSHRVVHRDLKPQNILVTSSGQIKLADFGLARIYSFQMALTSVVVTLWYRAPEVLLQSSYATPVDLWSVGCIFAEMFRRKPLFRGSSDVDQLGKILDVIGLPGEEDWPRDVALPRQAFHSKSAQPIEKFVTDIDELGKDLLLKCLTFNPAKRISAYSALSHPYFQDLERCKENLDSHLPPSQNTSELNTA

Nc1cccc(-c2cc3c(Oc4cccc(O)c4)ncnc3[nH]2)c1
residual activity (CDK6 CCND1 (human)): 82.2% | residual activity (EPHA4 (human)): 48.3% | residual activity (GSG2 (human)): 93.3% | residual activity (NLK (human)): 87.7% | residual activity (PKN2 (human)): 72% | residual activity (AURKB (human)): 71.9% | residual activity (MYLK (human)): 81.7% | residual activity (ZAP70 (human)): 97.5% | residual activity (PIM1 (human)): 85.9% | residual activity (PAK4 (human)): 99.8% | residual activity (EGFR (human)): 7.89% | residual activity (CDK6 CCND3 (human)): 91.3% | residual activity (ALK (human)): 80.9% | residual activity (TXK (human)): 24.5% | residual activity (PHKG2 (human)): 109% | residual activity (CDC42BPA (human)): 87.7% | residual activity (DYRK2 (human)): 76.9% | residual activity (HIPK4 (human)): 103% | residual activity (BTK (human)): 33.6% | residual activity (MKNK2 (human)): 67.5% | residual activity (GRK7 (human)): 102% | residual activity (TAOK3 (human)): 93.5% | residual activity (DMPK (human)): 95.2% | residual activity (STK3 (human)): 109% | residual activity (RPS6KA3 KD1 KD2 (human)): 96.9% | residual activity (MELK (human)): 93.4% | residual activity (KIT (human)): 35.1% | residual activity (BRAF (human)): 53.2% | residual activity (CLK2 (human)): 98.8% | residual activity (STK17A (human)): 93.7% | residual activity (CAMK2A (human)): 115% | residual activity (VRK1 (human)): 81.6% | residual activity (ULK1 (human)): 143% | residual activity (NUAK2 (human)): 90.3% | residual activity (PAK6 (human)): 109% | residual activity (CHEK2 (human)): 75.8% | residual activity (MATK (human)): 97.8% | residual activity (MAPK14 (human)): 98.1% | residual activity (AXL (human)): 75.9% | residual activity (SRPK2 (human)): 99.1% | residual activity (RPS6KB2 (human)): 94.7%

CCOC(=O)c1c(C)[nH]c(/C=C2\C(=O)Nc3ccccc32)c1C
residual activity (CDK6 CCND1 (human)): 89.7% | residual activity (EPHA4 (human)): 80.3% | residual activity (GSG2 (human)): 92.9% | residual activity (NLK (human)): 94.8% | residual activity (PKN2 (human)): 92% | residual activity (AURKB (human)): 67.3% | residual activity (MYLK (human)): 94.8% | residual activity (ZAP70 (human)): 98.8% | residual activity (PIM1 (human)): 95.8% | residual activity (PAK4 (human)): 71.8% | residual activity (EGFR (human)): 92.2% | residual activity (CDK6 CCND3 (human)): 84.7% | residual activity (ALK (human)): 79.2% | residual activity (TXK (human)): 96.1% | residual activity (PHKG2 (human)): 96.2% | residual activity (CDC42BPA (human)): 85.7% | residual activity (DYRK2 (human)): 92.4% | residual activity (HIPK4 (human)): 90.2% | residual activity (BTK (human)): 95.6% | residual activity (MKNK2 (human)): 87.4% | residual activity (GRK7 (human)): 86.3% | residual activity (TAOK3 (human)): 87.6% | residual activity (DMPK (human)): 101% | residual activity (STK3 (human)): 73.7% | residual activity (RPS6KA3 KD1 KD2 (human)): 86.4% | residual activity (MELK (human)): 87.4% | residual activity (KIT (human)): 46.3% | residual activity (BRAF (human)): 96.7% | residual activity (CLK2 (human)): 86% | residual activity (STK17A (human)): 81.4% | residual activity (CAMK2A (human)): 96.8% | residual activity (VRK1 (human)): 104% | residual activity (ULK1 (human)): 80.1% | residual activity (NUAK2 (human)): 128% | residual activity (PAK6 (human)): 81.4% | residual activity (CHEK2 (human)): 70.5% | residual activity (MATK (human)): 101% | residual activity (MAPK14 (human)): 134% | residual activity (AXL (human)): 88.9% | residual activity (SRPK2 (human)): 92.3% | residual activity (RPS6KB2 (human)): 103%

N#CC(C#N)=C(N)/C(C#N)=C/c1ccc(O)cc1
residual activity (CDK6 CCND1 (human)): 91.3% | residual activity (EPHA4 (human)): 96% | residual activity (GSG2 (human)): 90.1% | residual activity (NLK (human)): 96.7% | residual activity (PKN2 (human)): 96.9% | residual activity (AURKB (human)): 91% | residual activity (MYLK (human)): 101% | residual activity (ZAP70 (human)): 96% | residual activity (PIM1 (human)): 103% | residual activity (PAK4 (human)): 85.6% | residual activity (CDK6 CCND3 (human)): 100% | residual activity (ALK (human)): 109% | residual activity (TXK (human)): 100% | residual activity (PHKG2 (human)): 96.7% | residual activity (CDC42BPA (human)): 96.2% | residual activity (DYRK2 (human)): 117% | residual activity (HIPK4 (human)): 99.7% | residual activity (BTK (human)): 99.7% | residual activity (MKNK2 (human)): 79.1% | residual activity (GRK7 (human)): 104% | residual activity (TAOK3 (human)): 102% | residual activity (DMPK (human)): 101% | residual activity (STK3 (human)): 95.2% | residual activity (RPS6KA3 KD1 KD2 (human)): 94.6% | residual activity (MELK (human)): 101% | residual activity (KIT (human)): 92.4% | residual activity (BRAF (human)): 90.1% | residual activity (CLK2 (human)): 100% | residual activity (STK17A (human)): 72.8% | residual activity (CAMK2A (human)): 103% | residual activity (VRK1 (human)): 103% | residual activity (ULK1 (human)): 89.3% | residual activity (NUAK2 (human)): 122% | residual activity (PAK6 (human)): 97% | residual activity (CHEK2 (human)): 95.5% | residual activity (MATK (human)): 92.5% | residual activity (MAPK14 (human)): 104% | residual activity (AXL (human)): 93.7% | residual activity (SRPK2 (human)): 88.8% | residual activity (RPS6KB2 (human)): 96.8%

CCC(=O)Nc1ccc2ncnc(Nc3cccc(Br)c3)c2c1
residual activity (CDK6 CCND1 (human)): 92.5% | residual activity (EPHA4 (human)): 94.3% | residual activity (GSG2 (human)): 95.2% | residual activity (NLK (human)): 95.9% | residual activity (PKN2 (human)): 106% | residual activity (AURKB (human)): 95.4% | residual activity (MYLK (human)): 95.5% | residual activity (ZAP70 (human)): 113% | residual activity (PIM1 (human)): 85.3% | residual activity (PAK4 (human)): 105% | residual activity (CDK6 CCND3 (human)): 94.8% | residual activity (ALK (human)): 83.1% | residual activity (TXK (human)): 90.5% | residual activity (PHKG2 (human)): 109% | residual activity (CDC42BPA (human)): 101% | residual activity (DYRK2 (human)): 90.6% | residual activity (HIPK4 (human)): 87.8% | residual activity (BTK (human)): 89.4% | residual activity (MKNK2 (human)): 55.6% | residual activity (GRK7 (human)): 105% | residual activity (TAOK3 (human)): 89.2% | residual activity (DMPK (human)): 92% | residual activity (STK3 (human)): 88% | residual activity (RPS6KA3 KD1 KD2 (human)): 95% | residual activity (MELK (human)): 93.4% | residual activity (KIT (human)): 90.4% | residual activity (BRAF (human)): 93% | residual activity (CLK2 (human)): 101% | residual activity (STK17A (human)): 88.7% | residual activity (CAMK2A (human)): 85.7% | residual activity (VRK1 (human)): 94.4% | residual activity (ULK1 (human)): 103% | residual activity (NUAK2 (human)): 77.4% | residual activity (PAK6 (human)): 101% | residual activity (CHEK2 (human)): 87.1% | residual activity (MATK (human)): 93.4% | residual activity (MAPK14 (human)): 82.8% | residual activity (AXL (human)): 126% | residual activity (SRPK2 (human)): 88.6% | residual activity (RPS6KB2 (human)): 94.9%

c1ccc(-c2n[nH]cc2-c2ccnc3ccccc23)nc1
residual activity (CDK6 CCND1 (human)): 91.1% | residual activity (EPHA4 (human)): 98% | residual activity (GSG2 (human)): 90.8% | residual activity (NLK (human)): 79.8% | residual activity (PKN2 (human)): 91.4% | residual activity (AURKB (human)): 96% | residual activity (MYLK (human)): 105% | residual activity (ZAP70 (human)): 100% | residual activity (PIM1 (human)): 107% | residual activity (PAK4 (human)): 76.9% | residual activity (EGFR (human)): 81.8% | residual activity (CDK6 CCND3 (human)): 98.2% | residual activity (ALK (human)): 111% | residual activity (TXK (human)): 89.1% | residual activity (PHKG2 (human)): 97.7% | residual activity (DYRK2 (human)): 113% | residual activity (HIPK4 (human)): 89.9% | residual activity (BTK (human)): 104% | residual activity (MKNK2 (human)): 81.9% | residual activity (GRK7 (human)): 102% | residual activity (TAOK3 (human)): 92.8% | residual activity (DMPK (human)): 106% | residual activity (STK3 (human)): 102% | residual activity (RPS6KA3 KD1 KD2 (human)): 101% | residual activity (MELK (human)): 93.3% | residual activity (KIT (human)): 93.5% | residual activity (BRAF (human)): 95.7% | residual activity (CLK2 (human)): 99.4% | residual activity (STK17A (human)): 117% | residual activity (CAMK2A (human)): 102% | residual activity (VRK1 (human)): 92.6% | residual activity (ULK1 (human)): 85.9% | residual activity (NUAK2 (human)): 135% | residual activity (PAK6 (human)): 106% | residual activity (CHEK2 (human)): 96.6% | residual activity (MATK (human)): 87.9% | residual activity (MAPK14 (human)): 96% | residual activity (AXL (human)): 101% | residual activity (SRPK2 (human)): 97.2% | residual activity (RPS6KB2 (human)): 101%
